A short description of assay [1]: hypotension in the anesthetized dog by the intravenous route. It is filed as in vivo. Here is the method:
In the use of the compounds of the invention to produce hypotensive effects in warm-blooded animals, administration by the injectable route is preferred, preferably the intravenous route.
Thus in the anesthetized dog by the intravenous route the dose to produce hypotension is from about 1 μg/kg. to about 200 μg/kg. and preferably from about 10 μg/kg. to about 100 μg/kg.
Using this procedure the following results were obtained.

The subject of assay [2] is bronchoconstricting effects of a standard dose of acetylcholine. The assay can be described thus: bronchodilation in the guinea pig by aerosol inhalation (method of Rosenthale et al.). It is filed as in vivo. The source says:
In using the compounds of the invention to produce bronchodilating effects in warm-blooded animals, they may be administered in a variety of dosage forms: oral, injectable, and aerosol inhalation. Aerosol inhalation is a preferred method because of its rapid onset of action, great potency, and specificity of action. The particular dosage to obtain the bronchodilating effect will vary with the particular compound employed, the particular animal involved, and the degree of bronchodilation desired. In the guinea pig, by aerosol inhalation, the dose to produce bronchodilation is from about 0.15 micrograms to about 100 micrograms, and preferably from about 0.15 to about 50 micrograms. The bronchodilation produced upon aerosol inhalation can be observed by the method of Rosenthale et al., J. Pharmacol. Exp. Ther., 178, 541 (1971).
Using this procedure, the following results were obtained.

Regarding `C=C1CC[C@H](/C=C/[C@@H](O)CCCCC)[C@H]1CCCCCCC(=O)O` [2β-[(3S)-3-Hydroxy-Trans-1-Octenyl]-5-Methylene-1α-Cyclopentaneheptanoic Acid], in assay [1] (dose 100 μg/kg.), the Δb.p. is -32 mm. Hg. `CCCCC[C@H](O)/C=C/[C@H]1CC[C@@H](C=O)[C@@H]1CCCCCCC(=O)O` [5β-Formyl-2β-[(3S)-3-Hydroxy-Trans-1-Octenyl]-1α-Cyclopentane Heptanoic Acid] had a Δb.p. in assay [1] (dose 100 μg/kg.) of -27 mm. Hg. In addition, the “Percent inhibition of the bronchoconstricting effects of a standard dose of acetylcholine” value (from here on “Percent inhibition”) in assay [2] (dose 0.15 μg) is listed as 36%. Regarding `C=C1CC[C@H](/C=C/[C@@H](O)CCCCC)[C@H]1C/C=C\CCCC(=O)O` [7-[2β-((3S)-3-Hydroxy-Trans-1-Octenyl)-5-Methylene-1α-Cyclopentyl]-Cis-5-Heptenoic Acid], the “Percent inhibition” value in assay [2] (dose 1.5 μg) is 46%. On to `CCCCC[C@H](O)/C=C/[C@H]1CC[C@@H](C=O)[C@@H]1C/C=C\CCCC(=O)O` [7-[5β-Formyl-2β-((3S)-3-Hydroxy-Trans-1-Octenyl)-1α-Cyclopentyl]-Cis-5-Heptenoic Acid], for which the Δb.p. in assay [1] (dose 10 μg/kg.) is listed as -17 mm. Hg. In addition, the “Percent inhibition” value in assay [2] (dose 1.5 μg) was 55%.

In turn, `CCCCC[C@H](O)/C=C/[C@H]1CC[C@@H](CO)[C@@H]1C/C=C\CCCC(=O)O` [7-[5β-Hydroxymethyl-2β-((3S)-3-Hydroxy-Trans-1-Octenyl)-1α-Cyclopentyl]-Cis-5-Heptenoic Acid] registered a Δb.p. in assay [1] (dose 100 μg/kg.) of -27 mm. Hg.

(Values after US3931299A, “9β-Formyl prostaglandin derivatives” (American Home Products Corporation, priority 1974, dated 1976).)
